From publication PMC10404681, “Intrinsic catalytic properties of histone H3 lysine-9 methyltransferases preserve monomethylation levels under low S-adenosylmethionine” (The Journal of Biological Chemistry, 2023) come the findings set out here.

SMILES strings stand for the structures.

The target of one test is T1, EHMT1 catalytic domain (Homo sapiens, UniProt Q9H9B1).
T1 construct: EHMT1 = 982 to 1266; host or cells: Rosetta E. coli
T1 sequence (Q9H9B1 982-1266): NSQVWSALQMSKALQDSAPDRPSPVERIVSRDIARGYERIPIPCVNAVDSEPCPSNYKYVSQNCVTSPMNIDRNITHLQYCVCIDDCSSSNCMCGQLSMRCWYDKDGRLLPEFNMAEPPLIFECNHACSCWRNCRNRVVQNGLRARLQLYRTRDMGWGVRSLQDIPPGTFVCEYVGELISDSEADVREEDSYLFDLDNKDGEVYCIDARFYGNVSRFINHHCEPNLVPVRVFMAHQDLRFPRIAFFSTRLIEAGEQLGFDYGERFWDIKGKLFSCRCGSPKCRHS
In words: Radiometric EZ-tip methyltransferase assay, steady-state kinetics, EHMT1. Format: biochemical, H. sapiens. As to conditions: SAM varied 0.1–100 μM, EHMT1 25 nM, pH 7.9, 30 °C, n = 3, SD. The source says: (§1) The H. sapiens EHMT1 catalytic subunit (Addgene plasmid #51314) and H. sapiens SUV39H2 catalytic subunit (Addgene plasmid #25115) E. coli expression plasmids used in this study were acquired from Addgene, made possible through a gift by Cheryl Arrowsmith. The H. sapiens EHMT2 catalytic subunit E. coli expression plasmid used in this study was provided by the laboratory of Peter W. Lewis at the University of Wisconsin-Madison. All remaining histone methyltransferase expression plasmids were generated for this study and will be made freely available from Addgene.
(§2) Michaelis-Menten saturation curves were generated under steady-state conditions with the non-titrated component concentration being present at ≥5× KM specific to each enzyme. 1 × 10^5 CPM values were provided by [methyl-^3H] SAM in each reaction. Reaction times and enzyme concentrations were optimized for each HMT to ensure substrate turnover remained below 20%. […] Enzyme concentrations are calculated for the monomeric form. Reactions were incubated at 30 °C for 20 min before quenching with TFA for a final concentration of 2% v/v TFA. […] The eluates were added to 2 ml of Ultima Gold LSC Cocktail (Sigma-Aldrich) and counted on a scintillation counter (PerkinElmer). […]

In a further test the target is T2, EHMT2 catalytic domain (Homo sapiens, UniProt Q96KQ7).
T2 construct: EHMT2 = 913 to 1193; made in house; host or cells: Rosetta E. coli (plasmid from the laboratory of Peter W. Lewis)
T2 sequence (Q96KQ7 913-1193): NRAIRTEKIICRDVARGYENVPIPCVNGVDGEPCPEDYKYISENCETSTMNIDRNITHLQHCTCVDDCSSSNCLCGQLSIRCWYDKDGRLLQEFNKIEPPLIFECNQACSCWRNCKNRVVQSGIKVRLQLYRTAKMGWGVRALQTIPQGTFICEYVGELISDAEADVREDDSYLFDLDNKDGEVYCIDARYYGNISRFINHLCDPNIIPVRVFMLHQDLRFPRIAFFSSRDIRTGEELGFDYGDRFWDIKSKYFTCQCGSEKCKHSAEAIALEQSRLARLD
Kind of test: Radiometric EZ-tip methyltransferase assay, steady-state kinetics, EHMT2. Format: biochemical, H. sapiens. As to conditions: SAM varied 0.1–100 μM, EHMT2 25 nM, pH 7.9, 30 °C, n = 3, SD.
From the text: as §1, §2

The next test addresses T3, SUV39H1 (Homo sapiens, UniProt O43463).
T3 construct: made in house; host or cells: Rosetta E. coli (plasmid generated for this study)
T3 sequence (O43463 1-412): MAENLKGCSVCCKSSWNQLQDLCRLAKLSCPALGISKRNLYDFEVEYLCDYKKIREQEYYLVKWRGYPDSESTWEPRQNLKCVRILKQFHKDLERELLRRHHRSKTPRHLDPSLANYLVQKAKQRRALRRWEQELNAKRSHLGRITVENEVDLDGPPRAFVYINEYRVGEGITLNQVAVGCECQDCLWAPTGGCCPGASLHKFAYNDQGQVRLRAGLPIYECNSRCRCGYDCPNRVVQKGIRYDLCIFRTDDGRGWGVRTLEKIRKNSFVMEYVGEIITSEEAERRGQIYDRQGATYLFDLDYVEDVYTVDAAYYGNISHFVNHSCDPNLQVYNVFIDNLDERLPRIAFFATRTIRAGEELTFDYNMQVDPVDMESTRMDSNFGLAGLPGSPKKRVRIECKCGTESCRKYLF
In words: Radiometric EZ-tip methyltransferase assay, steady-state kinetics, SUV39H1. Format: biochemical. As to conditions: SAM varied 0.1–100 μM, SUV39H1 100 nM, pH 7.9, 30 °C, n = 3, SD.
From the text: as §1, §2

Another test concerns the target T4, SUV39H2 catalytic domain (Homo sapiens, UniProt Q9H5I1).
T4 construct: host or cells: Rosetta E. coli
Kind of test: Radiometric EZ-tip methyltransferase assay, steady-state kinetics, SUV39H2. As to conditions: SAM varied 0.1–100 μM, SUV39H2 25 nM, pH 7.9, 30 °C, n = 3, SD. It is filed as biochemical, H. sapiens.
From the text: as §1, §2

Where [1] appears, read: fixed H3K9me1 peptide H3(1–17) 50 μM.
Where [2] appears, read: fixed H3K9un peptide H3(1–17) 50 μM.

T4 sequence (Q9H5I1 162-410): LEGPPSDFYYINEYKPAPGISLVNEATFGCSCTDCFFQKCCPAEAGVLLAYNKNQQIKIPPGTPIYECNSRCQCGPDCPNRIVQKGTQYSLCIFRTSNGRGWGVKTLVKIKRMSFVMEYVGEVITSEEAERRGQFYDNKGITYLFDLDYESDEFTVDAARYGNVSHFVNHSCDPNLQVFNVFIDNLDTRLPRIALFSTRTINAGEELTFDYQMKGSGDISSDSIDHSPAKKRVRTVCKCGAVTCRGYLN

As for `C[S+](CC[C@H](N)C(=O)[O-])C[C@H]1O[C@@H](n2cnc3c(N)ncnc32)[C@H](O)[C@@H]1O` (some centres unmarked) [SAM, S-adenosylmethionine], the “kcat/KM, SAM” value is 0.30 µM⁻¹ min⁻¹ at EHMT1 catalytic domain (setting [1]); 1.01 µM⁻¹ min⁻¹ on EHMT1 catalytic domain (setting [2]); 0.13 µM⁻¹ min⁻¹ on EHMT2 catalytic domain (setting [1]); 0.40 µM⁻¹ min⁻¹ at EHMT2 catalytic domain (setting [2]); 0.03 µM⁻¹ min⁻¹ at SUV39H1 (setting [1]); 0.10 µM⁻¹ min⁻¹ at SUV39H1 (setting [2]). Besides, the entries for the “kcat/KM, SAM” value at SUV39H2 catalytic domain (setting [1]) and at SUV39H2 catalytic domain (setting [2]) were 0.36 µM⁻¹ min⁻¹ and 0.86 µM⁻¹ min⁻¹, respectively.
